Measured values: patent US11147796B2, “Agent for preventing or ameliorating hearing impairment” (Tohoku University, priority 2017, dated 2021)

Assays:
“m.1555A>G mutant” cells [1] = assay: Cytotoxicity level (extracellular LDH activity) of BSO-treated cells; format: cell-based, human; settings: BSO 100 μM, 48 hours
Protocol: (§1) In the following Examples 2, 3, and 5, “m.1555A>G mutant” cells were obtained by skin reproductive to a patient having “m.1555A>G mutation” to obtain dermal fibroblasts, then 10% Primary culture was carried out in DMEM (low glucose) culture solution (manufactured by Nacalai Tesque, Inc) containing FBS (Fetal bovine serum) under the condition of 5% CO2/20% O2, at 37° C. and isolated. In the following Examples 4 and 5, the inner ear culture was carried out in DMEM (high glucose) culture medium containing 10% FBS (Fetal bovine serum) under the condition of 5% CO2/20% O2, at 37° C.
(§2) [1] 2000 cells of “m.1555A>G mutant” cells were plated per well in a 96-well cell culture plate and cultured for 24 hours.
[2] Glutathione synthesis inhibitor BSO (L-Buthionine sulphoximine) (manufactured by Sigma-Aldrich) was mixed in the culture solution to be 100 μM and cultured for 24 hours (BSO-treated group). As a control, “m.1555A>G mutant” cells were cultured for 24 hours in the absence of BSO (control treatment group). For the BSO-treated group, the compound #5 synthesized in Example 1 was mixed into the culture solution so as to be at various concentrations (0.3, 1, 3, 10, and 30 μM) and cultured for 48 hours (N=4). As a control, the cells were cultured in the absence of compound #5 (DMSO was added so as to be 0.01%.). Cell survival level was measured by MTT assay using Cell Counting Kit-8 (manufactured by Dojindo Laboratories). That is, 100 μL of Cell Count Reagent SF was added to each well, incubated for 2 hours, and after 3 seconds of stirring with a microplate reader, the absorbance was measured at 450 nm (reference 750 nm). In addition, the level of cytotoxicity was detected by measuring lactate dehydrogenase (LDH) activity released extracellularly using Cytotoxicity LDH Assay Kit-WST (manufactured by Dojindo Laboratories). That is, 100 μL each of Working Solution prepared in each well was added, incubated for 30 minutes, Stop Solution was added in 50 μL each, and after stirring for 3 seconds with a microplate reader, the absorbance was measured at 490 nm (reference 750 nm).

Ndufs 4 KO mice = assay: Hearing ability by auditory brainstem response (ABR) in Ndufs 4 KO mice; format: in vivo, mouse; settings: vs non-administration KO
Protocol: Ndufs 4 KO mice (mutant mice due to the substitution of the second exon of the Ndufs 4 gene with Neo sandwiched between loxP sequences) were purchased from Jacson Laboratory. The genetic background of the mouse was C57BL/6, and 60 days old (body weight 10 to 13 g) was used. Compound #5 (1 mg/kg body weight/day) synthesized in Example 1 was orally administered to Ndufs 4 KO mice (administration group of Ndufs 4 KO mice, n=5), between 28 and 60 days of age, at 60 days of age, the hearing ability of the compound #5 administration group was evaluated by auditory brainstem response (ABR). As a control, the hearing ability of Nudfs 4 KO mice not received compound #5 (non-administration group of Ndufs 4 KO mice, n=4), wild type mice not received compound #5 (non-administration group of wild type mice, n=3) and Ndufs 4 hetero KO mice not received compound N #5 (non-administration group of Ndufs 4 hetero KO mice, n=4) was assessed by ABR at 60 days of age. In measuring the hearing ability, a mixture of ketamine (100 mg/kg body weight) and xylazine (20 mg/kg body weight) were anesthetized by intraperitoneal injection of mice. ABR was also analyzed using TDT System 3 workstation and BioSigRP software (Tucker-Davis Technologies). The averaging (1000 times) of the evoked response to the tone burst sound of each frequency (4, 8, 12, 16, and 32 kHz) was recorded. Stimuli sounds were presented at 5 dB intervals from each frequency, 100 dB SPL (Sound Pressure Level) to 10 dB SPL. […]
Using Ndufs 4 KO mice and their littermate wild type mice (littermate wild type mice), the hearing power of littermate wild type mice not received compound #5 (non-administration group of wild-type mice, n=5), Ndufs 4 KO mice not received compound #5 (non-administration group of Ndufs 4 KO mice, n=5) and Ndufs 4 KO mice received compound #5 (administration group of Ndufs 4 KO mice, n=5) were evaluated by ABR at 28 days of age and 60 days of age according to the method described in the item “6-1” of Example 6. […]

“m.1555A>G mutant” cells [2] = assay: Cell survival level (MTT assay) of cisplatin- or gentamicin-treated cells; format: cell-based, human; settings: 24 hours; for reduction of the cell survival level by gentamicin: gentamicin 2000 μM
Protocol: as §1, §2
[2] Cisplatin (manufactured by Yakult Corporation) or gentamicin (manufactured by Nacalai Tesque, Inc.) was mixed into the culture solution to be 100 μM and 2000 μM, respectively, and the compound #5 synthesized in Example 1 was mixed with various concentrations (1 and 10 μM), and cultured for 24 hours (cisplatin-treated group and gentamicin-treated group). As a control, “m.1555A>G mutant” cells were cultured in the absence of cisplatin (control group) or cisplatin-treated group in the absence of compound #5 (DMSO was added to 0.01%) for 24 hours. Cell survival level was measured by MTT assay using Cell Counting Kit-8 (manufactured by Dojindo laboratories). Specifically, 100 μL of Cell Count Reagent SF was added to each well, followed by incubation for 2 hours, and then stirred with a microplate reader for 3 seconds. Then the absorbance with 450 nm (reference 750 nm) was measured.

[3] = tested on: skin cells derived from hearing loss patients attributable to other inherited diseases; assay: Amount of ATP production in skin cells of patients with other inherited diseases; format: cell-based, human; settings: POU4F3 gene mutation, MELAS [m.3243A>G mutation], Alport syndrome

In the case of `O=C(CC(C(=O)O)c1c[nH]c2ccccc12)c1ccc(F)cc1F` (stereo not shown) [compound #5, 4-(2,4-Difluorophenyl)-2-(1H-indol-3-yl)-4-oxo-butanoic Acid], the “increase in the level of cytotoxicity” value (“m.1555A>G mutant” cells [1]; compound 3 μM, vs BSO-treated DMSO) is reported as “a significant difference was observed”, the “increase in the level of cytotoxicity” value (“m.1555A>G mutant” cells [1]; compound at least 0.3 μM) is reported as “suppressed” and the “increase in the level of cytotoxicity” value (“m.1555A>G mutant” cells [1]; compound at least 1 μM) is reported as “reduced to a level almost unchanged from that of the control group”. The ABR threshold (Ndufs 4 KO mice; Example 6, 1 mg/kg body weight/day oral, 28 to 60 days of age, measured at 60 days) was “lower than the ABR threshold in the non-administration group of Ndufs 4 KO mice”, the ABR threshold value (Ndufs 4 KO mice; Example 7, 1 mg/kg body weight/day oral, at 60 days of age) was “decreased” and the ABR threshold (Ndufs 4 KO mice; Example 8, 0.3 mg/kg body weight/day oral) was “decreased”. The “decrease in cell survival level due to cisplatin treatment” value (“m.1555A>G mutant” cells [2]; cisplatin 100 μM, compound 1 to 10 μM) was “significantly suppressed”, the “reduction of the cell survival level by gentamicin” value (“m.1555A>G mutant” cells [2]; compound 10 μM) was “significantly suppressed” and the “reduction of the cell survival level by gentamicin” value (“m.1555A>G mutant” cells [2]; compound at least 1 μM) was “suppressed”. The “amount of ATP production” value [3] was “confirmed”.
